Measurements published in patent US20220289753A1, “SHP2 INHIBITORS” (IRBM S.P.A., priority 2019, published 2022).

Experiments:
[1] = target: T1, SHP-2 enzyme (Met1-Leu525) (Homo sapiens, UniProt Q06124); assay: SHP2 inhibition enzymatic assay (DiFMUP substrate, IRS1 peptide activation); format: biochemical; conditions: SHP2 wt; activated by 500 nM IRS1 peptide; 75 μM DiFMUP substrate
T1 construct: synthetized by Origene, Met1-Leu525, cat #TP750155; purchased Origene TP750155
T1 sequence (Q06124 1-525): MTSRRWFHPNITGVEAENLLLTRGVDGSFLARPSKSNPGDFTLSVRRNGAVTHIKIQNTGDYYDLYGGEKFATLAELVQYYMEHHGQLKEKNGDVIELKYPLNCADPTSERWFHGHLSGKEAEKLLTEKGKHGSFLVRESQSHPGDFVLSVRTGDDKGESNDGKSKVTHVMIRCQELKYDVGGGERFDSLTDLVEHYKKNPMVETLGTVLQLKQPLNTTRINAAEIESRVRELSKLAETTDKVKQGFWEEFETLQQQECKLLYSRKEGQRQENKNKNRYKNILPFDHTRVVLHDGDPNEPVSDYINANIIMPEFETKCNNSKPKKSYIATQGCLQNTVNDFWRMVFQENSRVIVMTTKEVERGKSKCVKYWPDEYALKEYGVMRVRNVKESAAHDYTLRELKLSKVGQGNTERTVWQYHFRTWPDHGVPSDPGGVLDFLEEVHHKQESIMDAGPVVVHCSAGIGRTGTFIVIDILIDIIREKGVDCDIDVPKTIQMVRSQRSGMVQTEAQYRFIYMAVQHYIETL
Procedure, shortened: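 SHP-2 (Met1-Leu525, 0.5 nM final) preincubated 30 min with compounds and IRS1 activating peptide in HEPES pH 7.2 buffer with NaCl, KCl, EDTA, tween-20, 5 mM DTT. DiFMUP then added for 30 min at room temperature and fluorescence read. IC50 from four-parameter logistic fit of % inhibition.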

[2] = tested on: ERK phosphorylation in KYSE-520 cells; assay: Phospho-ERK cellular assay (Advanced phospho-ERK1/2 (Thr202/Tyr204) TR-FRET kit); format: cell-based; conditions: Homo sapiens, KYSE-520, 2 h, KYSE-520 cells, 2 h at 37° C., TR-FRET; read-out: pERK IC50
Method: Phospho-ERK Cellular Assay
ERK phosphorylation was detected using the “Advanced phospho-ERK1/2 (Thr202/Tyr204)” TR-FRET kit (Cisbio, Cat #64AERPEG/H), following the manufacturer reagents and instructions. […] After an overnight incubation, cells were treated with DMSO serial diluted compounds and incubated for 2 h at 37° C. After incubation, 2 μL/well of 4× Lysis Buffer (Cisbio 64KL1FDF), were added and incubated with cells for 30 min on gentle shaking. Finally, lysates were added with 2 μL/well of Eu cryptate (donor) and D2 (acceptor) conjugated antibodies (as provided by the Cisbio kit #64AERPEG/H) diluted 1:100 in Detection Buffer (as provided by the Cisbio kit #64AERPEG/H). Plates were then sealed and incubated at room temperature in the dark. After an overnight incubation, the TR-FRET signal was detected on a suitable reader (Envision, PerkinElmer). The lower the TR-FRET signal the higher the higher the SHP2 inhibition in cells. […] The percentage activity is fitted against the compound dilutions with a four-parameter logistic regression. The inflection point (i.e. the concentration at which half-maximal inhibition is achieved) is the IC50.

SMILES | IC50 [1] | IC50 [2]
COc1cc2c(cc1F)[C@@H](N)C1(CCN(c3nc4ncc(Sc5ccncc5Cl)nc4[nH]3)CC1)C2 [Example 186, (S)-1′-(6-((3-chloropyridin-4-yl)thio)-1H-imidazo[4,5-b]pyrazin-2-yl)-6-fluoro-5-methoxy-1,3-dihydrospiro[indene-2,4′-piperidin]-1-amine] | < 500 nM | < 1000 nM
N[C@@H]1c2ccccc2CC12CCN(c1[nH]c3ncc(Sc4cccc(Cl)c4Cl)nc3c1Cl)CC2 [Example 248, (S)-1′-(7-chloro-2-((2,3-dichlorophenyl)thio)-5H-pyrrolo[2,3-b]pyrazin-6-yl)-1,3-dihydrospiro[indene-2,4′-piperidin]-1-amine] | < 500 nM | 1000 to 5000 nM
N[C@@H]1c2ccccc2CC12CCN(c1nc3nc(Sc4ccnnc4Cl)cnc3[nH]1)CC2 [Example 247, (S)-1′-(5-((3-chloropyridazin-4-yl)thio)-1H-imidazo[4,5-b]pyrazin-2-yl)-1,3-dihydrospiro[indene-2,4′-piperidin]-1-amine] | < 500 nM | < 1000 nM
CC1(N)CCN(c2nc3nc(Sc4ccccc4C(F)(F)F)cnc3[nH]2)CC1 [Example 18, 4-methyl-1-(5-((2-(trifluoromethyl)phenyl)thio)-1H-imidazo[4,5-b]pyrazin-2-yl)piperidin-4-amine] | < 500 nM | 1000 to 5000 nM
CC(C)(C)S(=O)(=O)N[C@@H]1c2cccnc2CC12CCN(c1nc3nc(Sc4cccnc4C(F)(F)F)cnc3[nH]1)CC2 [Example 142, (S)-2-methyl-N-(1′-(5-((2-(trifluoromethyl)pyridin-3-yl)thio)-1H-imidazo[4,5-b]pyrazin-2-yl)-5,7-dihydrospiro[cyclopenta[b]pyridine-6,4′-piperidin]-5-yl)propane-2-sulfonamide] | 500 to 3000 nM | > 5000 nM
N[C@@H]1c2cccnc2CC12CCN(c1nc3ncc(Sc4ccnc(Cl)c4Cl)nc3[nH]1)CC2 [Example 171, (S)-1′-(5-((2,3-dichloropyridin-4-yl)thio)-1H-imidazo[4,5-b]pyrazin-2-yl)-5,7-dihydrospiro[cyclopenta[b]pyridine-6,4′-piperidin]-5-amine] | < 500 nM | < 1000 nM
CC1(N)CCN(c2nc3ncc(Sc4cccnc4C(F)(F)F)nc3[nH]2)CC1 [Example 1, 4-methyl-1-(6-((2-(trifluoromethyl)pyridin-3-yl)thio)-1H-imidazo[4,5-b]pyrazin-2-yl)piperidin-4-amine] | < 500 nM | 1000 to 5000 nM
N#Cc1c(Sc2cnc3[nH]c(N4CCC5(CC4)Cc4ccccc4[C@H]5N)nc3n2)ccnc1N [Example 215, (S)-2-amino-4-((2-(1-amino-1,3-dihydrospiro[indene-2,4′-piperidin]-1′-yl)-1H-imidazo[4,5-b]pyrazin-5-yl)thio)nicotinonitrile] | < 500 nM | < 1000 nM
Nc1nccc(Sc2cnc3[nH]c(N4CCC5(CC4)Cc4ncc(F)cc4[C@@H]5N)nc3n2)c1Cl [Example 229, (R)-1′-(5-((2-amino-3-chloropyridin-4-yl)thio)-1H-imidazo[4,5-b]pyrazin-2-yl)-3-fluoro-5,7-dihydrospiro[cyclopenta[b]pyridine-6,4′-piperidin]-5-amine] | < 500 nM | > 5000 nM
Cn1ccc(Sc2cnc3nc(N4CCC5(CC4)Cc4ccccc4[C@H]5N)[nH]c3n2)c(Cl)c1=O [Example 166, (S)-4-((2-(1-amino-1,3-dihydrospiro[indene-2,4′-piperidin]-1′-yl)-1H-imidazo[4,5-b]pyrazin-6-yl)thio)-3-chloro-1-methylpyridin-2(1H)-one] | < 500 nM | < 1000 nM
N#Cc1ccc2c(c1)[C@@H](N)C1(CCN(c3nc4nc(Sc5ccnc(N)c5Cl)cnc4[nH]3)CC1)C2 [Example 256, (S)-1-amino-1′-(5-((2-amino-3-chloropyridin-4-yl)thio)-1H-imidazo[4,5-b]pyrazin-2-yl)-1,3-dihydrospiro[indene-2,4′-piperidine]-6-carbonitrile] | < 500 nM | > 5000 nM
CC1(N)CCN(c2nc3nc(Sc4cccc5ccccc45)cnc3[nH]2)CC1 [Example 60, 4-methyl-1-(5-(naphthalen-1-ylthio)-1H-imidazo[4,5-b]pyrazin-2-yl)piperidin-4-amine] | < 500 nM | 1000 to 5000 nM
N[C@@H]1c2ccccc2CC12CCN(c1nc3ncc(Sc4cccc5nccnc45)nc3[nH]1)CC2 [Example 179, (S)-1′-(5-(quinoxalin-5-ylthio)-1H-imidazo[4,5-b]pyrazin-2-yl)-1,3-dihydrospiro[indene-2,4′-piperidin]-1-amine] | < 500 nM | < 1000 nM
Cn1c(N2CCC(C)(N)CC2)nc2nc(Sc3cccnc3C(F)(F)F)cnc21 [Example 52, 4-methyl-1-(1-methyl-5-((2-(trifluoromethyl)pyridin-3-yl)thio)-1H-imidazo[4,5-b]pyrazin-2-yl)piperidin-4-amine] | < 500 nM | > 5000 nM
N[C@@H]1c2ccccc2CC12CCN(c1nc3ncc(Sc4ccnc(N5CCOCC5)c4Cl)nc3[nH]1)CC2 [Example 180, (S)-1′-(5-((3-chloro-2-morpholinopyridin-4-yl)thio)-1H-imidazo[4,5-b]pyrazin-2-yl)-1,3-dihydrospiro[indene-2,4′-piperidin]-1-amine] | < 500 nM | < 1000 nM
COC1CN(c2nccc(Sc3cnc4nc(N5CCC6(CC5)Cc5ccccc5[C@H]6N)[nH]c4n3)c2Cl)C1 [Example 181, (S)-1′-(5-((3-chloro-2-(3-methoxyazetidin-1-yl)pyridin-4-yl)thio)-1H-imidazo[4,5-b]pyrazin-2-yl)-1,3-dihydrospiro[indene-2,4′-piperidin]-1-amine] | < 500 nM | > 5000 nM
N[C@@H]1c2ccccc2CC12CCN(c1nc3nc(Sc4cccc5nonc45)cnc3[nH]1)CC2 [Example 213, (S)-1′-(5-(benzo[c][1,2,5]oxadiazol-4-ylthio)-1H-imidazo[4,5-b]pyrazin-2-yl)-1,3-dihydrospiro[indene-2,4′-piperidin]-1-amine] | < 500 nM | < 1000 nM
Cc1c(Sc2cnc3nc(N4CCC5(CC4)Cc4ccccc4[C@H]5N)[nH]c3n2)ccnc1N [Example 204, (S)-1′-(6-((2-amino-3-methylpyridin-4-yl)thio)-1H-imidazo[4,5-b]pyrazin-2-yl)-1,3-dihydrospiro[indene-2,4′-piperidin]-1-amine] | < 500 nM | < 1000 nM
N[C@@H]1c2cc(F)ccc2CC12CCN(c1nc3ncc(Sc4ccncc4Cl)nc3[nH]1)CC2 [Example 183, (S)-1′-(6-((3-chloropyridin-4-yl)thio)-1H-imidazo[4,5-b]pyrazin-2-yl)-6-fluoro-1,3-dihydrospiro[indene-2,4′-piperidin]-1-amine] | < 500 nM | < 1000 nM
N[C@@H]1c2cccnc2CC12CCN(c1nc3ncc(Sc4cccc5c4CCC(=O)N5)nc3[nH]1)CC2 [Example 170, (S)-5-((2-(5-amino-5,7-dihydrospiro[cyclopenta[b]pyridine-6,4′-piperidin]-1′-yl)-1H-imidazo[4,5-b]pyrazin-5-yl)thio)-3,4-dihydroquinolin-2(1H)-one] | < 500 nM | 1000 to 5000 nM
N#Cc1c[nH]c2nccc(Sc3cnc4[nH]c(N5CCC6(CC5)Cc5ccccc5[C@H]6N)nc4n3)c12 [Example 240, (S)-4-((2-(1-amino-1,3-dihydrospiro[indene-2,4′-piperidin]-1′-yl)-1H-imidazo[4,5-b]pyrazin-5-yl)thio)-1H-pyrrolo[2,3-b]pyridine-3-carbonitrile] | < 500 nM | 1000 to 5000 nM
C[C@@H]1OCC2(CCN(c3nc4nc(Sc5cccnc5C(F)(F)F)cnc4[nH]3)CC2)[C@@H]1N [Example 96, (3S,4S)-3-methyl-8-(5-((2-(trifluoromethyl)pyridin-3-yl)thio)-1H-imidazo[4,5-b]pyrazin-2-yl)-2-oxa-8-azaspiro[4.5]decan-4-amine] | < 500 nM | 1000 to 5000 nM
CC1(N)CCN(c2nc3nc(Sc4ccccc4Br)cnc3[nH]2)CC1 [Example 37, 1-(5-((2-bromophenyl)thio)-1H-imidazo[4,5-b]pyrazin-2-yl)-4-methylpiperidin-4-amine] | < 500 nM | 1000 to 5000 nM
